ChEMBL document CHEMBL5052842, “Pharmaceutical compounds and their use as inhibitors of ubiquitin specific protease 19 (usp19)” (2020)

Target: T1, Ubiquitin carboxyl-terminal hydrolase 19 (Homo sapiens, UniProt O94966)
T1 sequence (O94966 whole entry): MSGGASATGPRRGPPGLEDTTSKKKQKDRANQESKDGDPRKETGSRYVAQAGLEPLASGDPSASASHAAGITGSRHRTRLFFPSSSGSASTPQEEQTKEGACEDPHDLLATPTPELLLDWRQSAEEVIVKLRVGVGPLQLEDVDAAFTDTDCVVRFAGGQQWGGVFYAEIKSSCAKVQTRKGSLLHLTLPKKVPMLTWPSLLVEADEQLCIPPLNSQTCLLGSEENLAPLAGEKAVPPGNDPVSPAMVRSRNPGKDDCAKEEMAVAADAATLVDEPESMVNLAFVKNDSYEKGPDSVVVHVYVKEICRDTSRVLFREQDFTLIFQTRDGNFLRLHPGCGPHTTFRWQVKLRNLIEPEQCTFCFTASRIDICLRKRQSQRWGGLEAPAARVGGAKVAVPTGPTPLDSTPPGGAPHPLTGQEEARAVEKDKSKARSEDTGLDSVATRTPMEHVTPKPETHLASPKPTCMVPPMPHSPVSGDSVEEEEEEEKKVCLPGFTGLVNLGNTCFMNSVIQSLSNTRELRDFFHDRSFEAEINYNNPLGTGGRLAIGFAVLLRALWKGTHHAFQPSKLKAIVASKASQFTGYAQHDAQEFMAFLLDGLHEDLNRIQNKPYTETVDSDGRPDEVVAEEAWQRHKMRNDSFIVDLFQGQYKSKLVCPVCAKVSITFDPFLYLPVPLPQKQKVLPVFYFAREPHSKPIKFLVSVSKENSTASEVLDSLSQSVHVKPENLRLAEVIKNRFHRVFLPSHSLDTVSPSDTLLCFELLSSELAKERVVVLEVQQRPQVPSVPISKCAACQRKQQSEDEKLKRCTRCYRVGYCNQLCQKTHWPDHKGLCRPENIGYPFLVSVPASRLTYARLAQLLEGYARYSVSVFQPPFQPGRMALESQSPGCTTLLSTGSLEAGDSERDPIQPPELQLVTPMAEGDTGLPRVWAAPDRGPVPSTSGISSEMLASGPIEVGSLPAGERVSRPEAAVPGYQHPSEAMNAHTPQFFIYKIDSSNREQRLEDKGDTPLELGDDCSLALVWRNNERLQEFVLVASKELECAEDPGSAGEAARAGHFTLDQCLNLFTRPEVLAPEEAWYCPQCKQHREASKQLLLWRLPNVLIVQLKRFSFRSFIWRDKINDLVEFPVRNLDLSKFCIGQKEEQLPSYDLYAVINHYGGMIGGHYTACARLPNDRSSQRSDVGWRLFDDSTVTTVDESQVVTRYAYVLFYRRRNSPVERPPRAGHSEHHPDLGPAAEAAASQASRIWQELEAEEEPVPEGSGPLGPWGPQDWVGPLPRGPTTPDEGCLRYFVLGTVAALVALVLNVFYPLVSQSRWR
Experiment: Inhibition of C-terminal His6-tagged recombinant human USP19 using iso-peptide ubiquitin-Lys-TAMRA as substrate incubated for 30 mins and measured after 90 mins by fluorescent polarization assay

IC50 [nM] | Structure (SMILES)
< 500 | O=C(N1CC[C@@](O)(Cn2ccc(C3CC3)cc2=O)C2(CCCC2)C1)N1CCNC[C@H]1c1ccccc1
< 500 | O=C(N1CCC(O)(Cn2cc(F)c(-c3ccccc3)cc2=O)C2(CCCC2)C1)N1CCNC[C@H]1c1ccccc1 (stereo partly drawn)
< 500 | Cn1cc(-c2ccn(C[C@]3(O)CCN(C(=O)N4CCNC[C@H]4c4ccccc4)CC34CCCC4)c(=O)c2)cn1
< 500 | O=C(N1CCC(O)(Cn2cnc(-c3ccccc3)cc2=O)C2(CCOCC2)C1)N1CCOC[C@H]1c1ccccc1 (stereo partly drawn)
< 500 | CC1(C)CN(C(=O)N2CCNC[C@H]2c2ccccc2)CC[C@@]1(O)Cn1ccc(-c2ccccc2)cc1=O
< 500 | COc1cccc(-c2cc(=O)n(C[C@]3(O)CCN(C(=O)N4CCNC[C@H]4c4ccccc4)CC34CCCC4)cn2)c1
< 500 | CC1(C)CN(C(=O)N2CCOC[C@H]2c2ccccc2)CC[C@@]1(O)Cn1cnc(-c2ccccc2)cc1=O
< 500 | O=C(NCc1ccc(F)c(F)c1)N1CC[C@@](O)(Cn2cnc(-c3ccccc3)cc2=O)C2(CCCC2)C1
< 500 | O=C(N1CCC(O)(Cn2cnc(-c3ccccc3)cc2=O)C2(CCCC2)C1)N1CCOCC1c1cccs1 (stereo not drawn)
< 500 | Cn1cc(-c2cc(=O)n(C[C@]3(O)CCN(C(=O)N4CCOC[C@H]4c4ccc(F)cc4)CC34CCCC4)cn2)cn1
< 500 | O=C(N1CC[C@@](O)(Cn2ccc(N3CCCC3)cc2=O)C2(CCCC2)C1)N1CCNC[C@H]1c1ccccc1
< 500 | CN(C)c1cc(=O)n(C[C@]2(O)CCN(C(=O)N3CCOC[C@H]3c3ccccc3)CC23CCCC3)cn1
< 500 | Cn1cc(-c2cc(=O)n(C[C@]3(O)CCN(C(=O)N4CCNC[C@H]4c4ccccc4)CC34CCCC4)cn2)cn1
< 500 | O=C(N1CCC(O)(Cn2cnc(-c3ccccc3)cc2=O)C2(CCCCC2)C1)N1CCOC[C@H]1c1ccccc1 (stereo partly drawn)
< 500 | O=C(N[C@H](c1ccccc1)C(F)(F)F)N1CC[C@@](O)(Cn2ccc(-c3ccccc3)cc2=O)C2(CCCC2)C1
< 500 | O=C(N1CC[C@@](O)(Cn2cnc(Cl)cc2=O)C2(CCCC2)C1)N1CCOC[C@H]1c1ccc(F)cc1
< 500 | N=S1(=O)CCN(C(=O)N2CC[C@@](O)(Cn3cnc(-c4ccccc4)cc3=O)C3(CCCC3)C2)C(c2ccccc2)C1 (stereo partly drawn)
< 500 | CNc1cc(=O)n(C[C@]2(O)CCN(C(=O)N3CCNC[C@H]3c3ccccc3)CC23CCCC3)cn1
< 500 | O=C(N1CC[C@@](O)(Cn2cnc(-c3ccc(F)cc3)cc2=O)C2(CCCC2)C1)N1CCNC[C@H]1c1ccccc1
< 500 | Cn1nccc1-c1cc(=O)n(C[C@]2(O)CCN(C(=O)N3CCOC[C@H]3c3ccc(F)cc3)CC23CCCC3)cn1
< 500 | O=C(N1CC[C@@](O)(Cn2cnc(-c3ccccc3)cc2=O)C2(CCCC2)C1)N1CCOC[C@H]1c1ccc(F)cc1

IC50 [nM] | Structure (SMILES)
< 500 | CC1(C)CN(C(=O)N2CCOC[C@H]2c2ccccc2)CC[C@@]1(O)Cn1ccc(-c2ccccc2)cc1=O
< 500 | O=C(N1CC[C@@](O)(Cn2cnc(-c3ccccc3F)cc2=O)C2(CCCC2)C1)N1CCNC[C@H]1c1ccccc1
< 500 | O=C(N1CC[C@@](O)(Cn2cnc(-c3ccccc3)cc2=O)C2(CCCC2)C1)N1CCNCC1c1ccc(C(F)(F)F)cc1 (stereo partly drawn)
< 500 | CC1(C)CN(C(=O)N2CCNC[C@H]2c2ccccc2)CC[C@@]1(O)Cn1cnc(-c2ccccc2)cc1=O
< 500 | O=C(N1CC[C@@](O)(Cn2cnc(C3CC3)cc2=O)C2(CCCC2)C1)N1CCNC[C@H]1c1ccccc1
< 500 | COc1ccccc1-c1cc(=O)n(C[C@]2(O)CCN(C(=O)N3CCNC[C@H]3c3ccccc3)CC23CCCC3)cn1
< 500 | O=C(N1CC[C@@](O)(Cn2cnc(N3CCCC3)cc2=O)C2(CCCC2)C1)N1CCNC[C@H]1c1ccccc1
< 500 | O=C(N1CC[C@@](O)(Cn2ccc(-c3ccccc3)cc2=O)C2(CCCC2)C1)N1CCNC[C@H]1c1ccccc1
< 500 | O=C(N1CC[C@@](O)(Cn2cnc(-c3ccccc3)cc2=O)C2(CCCC2)C1)N1CCS(=O)(=O)CC1c1ccccc1 (stereo partly drawn)
< 500 | CN(C)C(=O)c1cn(C[C@]2(O)CCN(C(=O)N3CCOC[C@H]3c3ccccc3)CC2(C)C)c(=O)cc1-c1ccccc1
< 500 | Cc1cc(=O)n(C[C@]2(O)CCN(C(=O)N3CCNC[C@H]3c3ccccc3)CC23CCCC3)cn1
< 500 | CN1CCN(C(=O)N2CC[C@@](O)(Cn3cnc(-c4ccccc4)cc3=O)C3(CCCC3)C2)[C@H](c2ccccc2)C1
< 500 | O=C(N1CC[C@@](O)(Cn2cnc(-c3ccccc3)cc2=O)C2(CCCC2)C1)N1CCNCC1c1ccsc1 (stereo partly drawn)
< 500 | O=C(N1CC[C@@](O)(Cn2cnc(N3CCCC3)cc2=O)C2(CCCC2)C1)N1CCOC[C@H]1c1ccccc1
< 500 | O=C(N1CC[C@@](O)(Cn2cnc(-c3ccccc3)cc2=O)C2(CCCC2)C1)N1CCNC[C@H]1c1ccccc1
< 500 | O=C(N1CC[C@@](O)(Cn2cnc(C3CC3)cc2=O)C2(CCCC2)C1)N1CCOC[C@H]1c1ccccc1
< 500 | O=C(N[C@H](c1ccccc1)C(F)(F)F)N1CC[C@@](O)(Cn2cnc(-c3ccccc3)cc2=O)C2(CCCC2)C1
< 500 | Cn1nccc1-c1ccn(C[C@]2(O)CCN(C(=O)N3CCNC[C@H]3c3ccccc3)CC23CCCC3)c(=O)c1
< 500 | O=C(N1CCC(O)(Cn2cnc(-c3ccccc3)cc2=O)C2(CCC2)C1)N1CCNC[C@H]1c1ccccc1 (stereo partly drawn)
< 500 | O=C(NCc1c(F)cccc1F)N1CC[C@@](O)(Cn2cnc(-c3ccccc3)cc2=O)C2(CCCC2)C1
< 500 | O=C(N1CCC(O)(Cn2cnc(-c3ccccc3)cc2=O)C2(CCC2)C1)N1CCOC[C@H]1c1ccccc1 (stereo partly drawn)

IC50 [nM] | Structure (SMILES)
< 500 | Cn1cc(-c2cc(=O)n(C[C@]3(O)CCN(C(=O)N4CCOC[C@H]4c4ccccc4)CC34CCCC4)cn2)cn1
< 500 | CN(C)c1ccc(-c2cc(=O)n(C[C@]3(O)CCN(C(=O)N4CCNC[C@H]4c4ccccc4)CC34CCCC4)cn2)cc1
< 500 | O=C(N1CCC(O)(Cn2ncc(-c3ccccc3)cc2=O)C2(CCCC2)C1)N1CCOC[C@H]1c1ccccc1 (stereo partly drawn)
< 500 | O=C(NCc1ccccc1F)N1CCC(O)(Cn2cnc(-c3ccccc3)cc2=O)C2(CCCC2)C1 (stereo not drawn)
< 500 | Cc1cccc(-c2cc(=O)n(C[C@]3(O)CCN(C(=O)N4CCNC[C@H]4c4ccccc4)CC34CCCC4)cn2)c1
< 500 | O=C(N1CC[C@@](O)(Cn2cnc(-c3ccccc3)cc2=O)C2(CCCC2)C1)N1CCSCC1c1ccccc1 (stereo partly drawn)
< 500 | O=C(N1CC[C@@](O)(Cn2cnc(-c3ccccc3)cc2=O)C2(CCCC2)C1)N1CCN(CC(F)(F)F)C[C@H]1c1ccccc1
< 500 | O=C(N1CC[C@@](O)(Cn2cnc(-c3ccccc3)cc2=O)C2(CCOCC2)C1)N1CCNC[C@H]1c1ccccc1
< 500 | O=C(N1CC[C@@](O)(Cn2cnc(-c3ccccc3)cc2=O)C2(CCCC2)C1)N1CCNC[C@H]1c1cccc(F)c1
< 500 | O=C(N1CCC(O)(Cn2cnc(-c3ccccc3)cc2=O)C2(CCCCC2)C1)N1CCNC[C@H]1c1ccccc1 (stereo partly drawn)
< 500 | Cc1ccccc1-c1cc(=O)n(C[C@]2(O)CCN(C(=O)N3CCNC[C@H]3c3ccccc3)CC23CCCC3)cn1
< 500 | O=C(N1CCC(O)(Cn2cnc(-c3ccccc3)cc2=O)CC1)N1CCNC[C@H]1c1ccccc1
< 500 | Cn1nccc1-c1cc(=O)n(C[C@]2(O)CCN(C(=O)N3CCNC[C@H]3c3ccccc3)CC23CCCC3)cn1
< 500 | O=C(N1CC[C@@](O)(Cn2cnc(-c3cccc(F)c3)cc2=O)C2(CCCC2)C1)N1CCNC[C@H]1c1ccccc1
< 500 | O=C(N1CC[C@@](O)(Cn2ccc(Cl)cc2=O)C2(CCCC2)C1)N1CCNC[C@H]1c1ccccc1
< 500 | COc1cc(=O)n(C[C@]2(O)CCN(C(=O)N3CCNC[C@H]3c3ccccc3)CC23CCCC3)cn1
< 500 | O=C(NCc1cccc(F)c1F)N1CC[C@@](O)(Cn2cnc(-c3ccccc3)cc2=O)C2(CCCC2)C1
< 500 | Cn1nccc1-c1cc(=O)n(C[C@]2(O)CCN(C(=O)N3CCOC[C@H]3c3ccccc3)CC23CCCC3)cn1
< 500 | O=C(NCC1CC(F)(F)C1)N1CC[C@@](O)(Cn2cnc(-c3ccccc3)cc2=O)C2(CCCC2)C1
< 500 | O=C(NCc1ccc(F)cc1F)N1CC[C@@](O)(Cn2cnc(-c3ccccc3)cc2=O)C2(CCCC2)C1
< 500 | COc1ccc(-c2cc(=O)n(C[C@]3(O)CCN(C(=O)N4CCNC[C@H]4c4ccccc4)CC34CCCC4)cn2)cc1
